Usually Km stands for the concentration of substrate that gives half-maximal velocity.

In test [1] the target is T1, Zea mays asparagine synthetase Zm AsnS4 (SEQ ID NO: 51, encoded by SEQ ID NO: 50) (Zea mays, UniProt B5U8J9).
T1 construct: 588 aa
T1 sequence (B5U8J9 1-588): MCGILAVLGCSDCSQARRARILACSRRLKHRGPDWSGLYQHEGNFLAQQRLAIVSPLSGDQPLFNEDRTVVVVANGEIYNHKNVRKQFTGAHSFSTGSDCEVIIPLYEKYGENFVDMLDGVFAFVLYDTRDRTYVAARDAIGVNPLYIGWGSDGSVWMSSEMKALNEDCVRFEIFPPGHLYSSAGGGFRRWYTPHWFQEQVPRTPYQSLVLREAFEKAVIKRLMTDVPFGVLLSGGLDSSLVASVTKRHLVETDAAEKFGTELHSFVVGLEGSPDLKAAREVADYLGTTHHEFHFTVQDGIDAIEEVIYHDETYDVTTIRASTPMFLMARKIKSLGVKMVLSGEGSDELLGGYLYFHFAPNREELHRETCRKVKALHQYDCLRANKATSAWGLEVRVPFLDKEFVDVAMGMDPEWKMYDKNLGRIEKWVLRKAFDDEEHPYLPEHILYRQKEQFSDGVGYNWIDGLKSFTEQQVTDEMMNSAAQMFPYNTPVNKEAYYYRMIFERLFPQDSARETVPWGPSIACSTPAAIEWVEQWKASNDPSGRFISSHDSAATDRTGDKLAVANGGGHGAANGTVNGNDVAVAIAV
In words: Kinetics of recombinant his-tagged, refolded maize asparagine synthetase AsnS4 (substrate titration, asparagine by HPLC). The class given is biochemical. The conditions noted are these: 100 mM Hepes, pH 8.0, 10 mM MgCl2, read-out: Km(NH4^+). The method, then:
The effect of expression of asparagine synthetase genes on asparagine synthetase activity was measured in transgenic events of pMON79706 and pMON92870. Frozen, ground leaf tissue was aliquoted (200-400 mg) into wells from a precooled 96 deep-well plate. Protein was extracted in Buffer A (100 mM Hepes-OH, pH 8.0, 0.1 mM EDTA, 10 mM MgCl2, 2 mM aspartate, 0.5 mM DTT, 67 mM mercaptoethanol, 20% (v/v) glycerol, 0.1 mM ATP, 1% (v/v) P9599 (Sigma Company), 25 mM KCl). A small amount of sand was added to each well. Buffer A was then added to the leaf tissue in the wells at a ratio of 4:1 (buffer:tissue). The plates were then agitated in a paint shaker for 2 min. to mix the sample and then centrifuged at 5000×g for 10 minutes. The supernatant (100-200 μL) was desalted in a 96-well macro spin plate (SNS S025L, The Nest Group Inc., Southboro, Mass.) equilibrated in buffer A. The supernatant was then either assayed immediately or frozen in liquid nitrogen and maintained at −80° C. until used. To assay asparagine synthetase activity, desalted protein extracts (10-50 μL) were added to wells containing 100 μL assay solution (100 mM Hepes, pH 8.0, 10 mM MgCl2, 2 mM aspartate, 5 mM DTT, 10 mM ATP, 1 mM amino(oxy)acetic acid (aspartate amino transferase inhibitor), 1 mM aspartic semialdehyde (asparaginase inhibitor). To start the reaction, glutamine (final concentration of 2 mM for standard assay) was added to the solution, which was then mixed. The assay mixture was then incubated for 1 to 2 hours. The reaction was then stopped by the addition of an equal volume of 20% (w/v) trichloroacetic acid. The mixture was then filtered to remove precipitate and asparagine was measured by HPLC. Sample size was increased from 0.5 μL to 2.5 μL for HPLC, excitation wavelength was reduced from 340 nm to 235 nm, and fluorimeter gain was increased from 10 to 13. […]

The target of test [2] is T2, Zea mays asparagine synthetase Zm AsnS1 (SEQ ID NO: 2, encoded by SEQ ID NO: 1) (Zea mays, UniProt B4FFJ0).
T2 sequence (B4FFJ0 with tags, fused parts or gaps): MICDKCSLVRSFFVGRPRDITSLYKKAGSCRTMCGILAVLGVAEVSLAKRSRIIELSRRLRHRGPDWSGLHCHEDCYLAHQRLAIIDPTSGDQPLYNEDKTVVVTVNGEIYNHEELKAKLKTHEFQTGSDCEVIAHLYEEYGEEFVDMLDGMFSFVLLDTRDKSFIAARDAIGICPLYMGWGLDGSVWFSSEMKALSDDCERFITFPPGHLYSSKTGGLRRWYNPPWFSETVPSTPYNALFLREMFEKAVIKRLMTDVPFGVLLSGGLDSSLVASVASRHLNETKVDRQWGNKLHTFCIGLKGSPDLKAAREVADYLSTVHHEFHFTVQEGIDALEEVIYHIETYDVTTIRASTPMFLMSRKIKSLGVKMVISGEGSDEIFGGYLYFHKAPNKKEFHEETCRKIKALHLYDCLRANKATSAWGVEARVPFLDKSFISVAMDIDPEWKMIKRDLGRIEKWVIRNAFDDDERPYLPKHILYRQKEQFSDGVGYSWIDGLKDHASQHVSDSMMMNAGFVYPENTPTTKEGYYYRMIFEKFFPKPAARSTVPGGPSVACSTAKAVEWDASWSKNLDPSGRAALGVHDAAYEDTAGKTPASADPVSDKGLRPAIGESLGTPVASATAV
In words: Kinetics of recombinant his-tagged, refolded maize asparagine synthetase AsnS1 (substrate titration, asparagine by HPLC). The note with it: 100 mM Hepes, pH 8.0, 10 mM MgCl2, read-out: Km(NH4^+). The class given is biochemical. Here is the method:
The effect of expression of asparagine synthetase genes on asparagine synthetase activity was measured in transgenic events of pMON79706 and pMON92870. Frozen, ground leaf tissue was aliquoted (200-400 mg) into wells from a precooled 96 deep-well plate. Protein was extracted in Buffer A (100 mM Hepes-OH, pH 8.0, 0.1 mM EDTA, 10 mM MgCl2, 2 mM aspartate, 0.5 mM DTT, 67 mM mercaptoethanol, 20% (v/v) glycerol, 0.1 mM ATP, 1% (v/v) P9599 (Sigma Company), 25 mM KCl). A small amount of sand was added to each well. Buffer A was then added to the leaf tissue in the wells at a ratio of 4:1 (buffer:tissue). The plates were then agitated in a paint shaker for 2 min. to mix the sample and then centrifuged at 5000×g for 10 minutes. The supernatant (100-200 μL) was desalted in a 96-well macro spin plate (SNS S025L, The Nest Group Inc., Southboro, Mass.) equilibrated in buffer A. The supernatant was then either assayed immediately or frozen in liquid nitrogen and maintained at −80° C. until used. […] The mixture was then filtered to remove precipitate and asparagine was measured by HPLC. […]

In the case of `N` [NH4^+], the results for the Michaelis-Menten constant (Km) in test [1] and in test [2] were 9 mM and 9.9 mM, respectively.

Values taken from patent US8357833B2, “Corn plants and seed enhanced for asparagine and protein” (priority 2007, dated 2013).
